Measured values: US12466784B2, “Analogs of pterostilbene amino acid bearing carbonates for treating a non-alcoholic fatty liver disease and nonalcoholic steatohepatitis” (APICAL MOLECULAR BIOTECH CO., LTD., priority 2020, dated 2025)
Several values for one entry are separate records, joined by “and”; a condition that tells them apart may be missing. Equal entries are not always repeated.

Columns and labels:
[1] = In vitro stability in pH 1.2 solution (USP Gastric fluid without enzymes); conditions: 37° C.
Description: Sample collection: At 0, 0.17, 0.5, 1, 2, 4 and 6 h, 100 mL of aliquots were taken from the incubation mixture and placed into centrifuge tubes containing 100 μL of ice-cold acetonitrile and 1 μm internal standard where the reaction was terminated.

MCD diet NASH mice = experiment: Serum AST and ALT of compounds treated-NASH mice (MCD diet); type: in vivo, Male C57BL/6 mice
Description: (§1) Animals and experimental protocol: Male C57BL/6 mice, 4 weeks of age, were purchased from Laboratory Animal Center (Taiwan, China) were maintained under the procedures and guidelines provided by the Institutional Animal Care and Use Committee of the Health Research Institutes (Taiwan, China). They were maintained with free access to pellet food and water in stainless-steel cages at a temperature of 21±2° C. with a 12 h light/dark cycle.
(§2) Mice were randomly divided into five groups and treated as follows: (1) MCD diet+PG/TPSG (2) MCD diet+100 mg/kg all compounds. After 28 days, animals were sacrificed for the collection of blood for determination of plasma ALT and AST concentrations, and liver samples for H&E stain.
(§3) After 28 days, animals were sacrificed for the collection of blood for determination of plasma ALT and AST concentrations, and liver samples for H&E stain.

[2] = tested on: hepatic steatosis induced by MCD diet; experiment: Histological examination (H&E stain) of liver of MCD diet mice; type: in vivo, Male C57BL/6 mice; conditions: for Avg: average of Scores of the group; for Steatosis / Ballooning / Fibrosis / Inflammation / Steastosis: score per animal; for Steatosis: in PG/TPSG (1:1); for Scores: total score per animal
Description: as §1, §2, §3

[3] = MCD diet mice, 100 mg/kg oral (Table 2)
[4] = MCD diet mice, 100 mg/kg oral, PG/TPSG (1:1)
[5] = MCD diet mice, 100 mg/kg oral once daily, 5 times a week
[6] = MCD diet mice, 100 mg/kg oral, PG/TPSG (1:1), hydrochloride, 100 mg/kg
[7] = sum of Scores of the 4 animals of the group, 100 mg/kg oral, PG/TPSG (1:1)
[8] = MCD diet mice, 100 mg/kg oral (Table 4 study)
[9] = MCD diet mice, 75 mg/kg oral, hydrochloride, 75 mg/kg
[10] = MCD diet mice, 100 mg/kg oral (Table 3 study)
[11] = MCD diet mice, 100 mg/kg oral (Table 3 study), hydrochloride, 100 mg/kg
[12] = MCD diet mice, 150 mg/kg oral, hydrochloride, 150 mg/kg
[13] = MCD diet mice, 100 mg/kg oral, PG/TPSG (1:1), dihydrochloride, 100 mg/kg
[14] = MCD diet mice, 100 mg/kg oral, PG/TPSG (1:1), 100 mg/kg

COc1cc(/C=C/c2ccc(OC(=O)OCCNC(=O)CN)cc2)cc(OC)c1.Cl [Compound 5a, (E)-2-(2-aminoacetamido)ethyl (4-(3,5-dimethoxystyryl)phenyl) carbonate hydrochloride]
compound remaining in pH = 1.2 solution (%) ([1]; Time 0 h): 100.0%
compound remaining in pH = 1.2 solution (%) ([1]; Time 0.167 h): 104.6%
compound remaining in pH = 1.2 solution (%) ([1]; Time 0.5 h): 104.0%
compound remaining in pH = 1.2 solution (%) ([1]; Time 1 h): 110.2%
compound remaining in pH = 1.2 solution (%) ([1]; Time 2 h): 101.7%
compound remaining in pH = 1.2 solution (%) ([1]; Time 4 h): 103.5%
effect on serum concentrations of AST and ALT, in words (MCD diet NASH mice; [3]): significantly inhibited the serum concentrations of AST and ALT
Serum ALT (U/L) (MCD diet NASH mice; [4]): 251.75 U/L
Serum AST (U/L) (MCD diet NASH mice; [4]): 283.00 U/L
effect on MCD diet-induced steatohepatitis (H&E staining), in words ([2]; MCD diet mice, 100 mg/kg oral): prevented MCD diet-induced steatohepatitis
Avg ([2]; 100 mg/kg oral, PG/TPSG (1:1)): 7.75
Steatosis [2, 5]: 3
Ballooning [2, 4]: 2
Fibrosis [2, 4]: 0
Inflammation [2, 6]: 3 (3×) and 2
Sum [2, 7]: 31
Scores [2, 6]: 8 (3×) and 7

COc1cc(/C=C/c2ccc(OC(=O)OCCNC(=O)CN)cc2)cc(OC)c1.O=C(O)c1cccnc1 [Compound 5v, (E)-2-(2-aminoacetamido)ethyl (4-(3,5-dimethoxystyryl)phenyl) carbonate nicotinate]
compound remaining in pH = 1.2 solution (%) ([1]; Time 0 h): 100.0%
compound remaining in pH = 1.2 solution (%) ([1]; Time 0.167 h): 100.6%
compound remaining in pH = 1.2 solution (%) ([1]; Time 0.5 h): 106.8%
compound remaining in pH = 1.2 solution (%) ([1]; Time 1 h): 101.0%
compound remaining in pH = 1.2 solution (%) ([1]; Time 2 h): 103.0%
compound remaining in pH = 1.2 solution (%) ([1]; Time 4 h): 106.9%
compound remaining in pH = 1.2 solution (%) ([1]; Time 6 h): 84.8%
Serum ALT (U/L) (MCD diet NASH mice; [4]): 430.13 U/L
Serum AST (U/L) (MCD diet NASH mice; [4]): 610.25 U/L
Avg ([2]; 100 mg/kg oral, PG/TPSG (1:1)): 8.00
Steatosis [2, 5]: 3
Ballooning [2, 4]: 2
Fibrosis [2, 4]: 0
Inflammation [2, 4]: 3
Sum [2, 7]: 32
Scores [2, 4]: 8

(E)-2-(2-amino-3-methylbutanamido)ethyl (4-(3,5-dimethoxystyryl)phenyl) carbonate hydrochloride [Compound 5c]
compound remaining in pH = 1.2 solution (%) ([1]; Time 0 h): 100.0%
compound remaining in pH = 1.2 solution (%) ([1]; Time 0.167 h): 88.5%
compound remaining in pH = 1.2 solution (%) ([1]; Time 0.5 h): 93.2%
compound remaining in pH = 1.2 solution (%) ([1]; Time 1 h): 96.0%
compound remaining in pH = 1.2 solution (%) ([1]; Time 2 h): 91.7%
compound remaining in pH = 1.2 solution (%) ([1]; Time 4 h): 97.4%
Serum ALT (U/L) (MCD diet NASH mice; MCD diet mice, 75 mg/kg oral): 164.40 U/L
Serum AST (U/L) (MCD diet NASH mice; MCD diet mice, 75 mg/kg oral): 275.00 U/L
effect on serum concentrations of AST and ALT, in words (MCD diet NASH mice; [3]): significantly inhibited the serum concentrations of AST and ALT
Serum ALT (U/L) (MCD diet NASH mice; [8]): 92.60 U/L
Serum AST (U/L) (MCD diet NASH mice; [8]): 245.80 U/L
Serum ALT (U/L) (MCD diet NASH mice; [4]): 205.13 U/L
Serum AST (U/L) (MCD diet NASH mice; [4]): 274.00 U/L
Serum ALT (U/L) (MCD diet NASH mice; MCD diet mice, 150 mg/kg oral): 82.80 U/L
Serum AST (U/L) (MCD diet NASH mice; MCD diet mice, 150 mg/kg oral): 192.00 U/L
effect on serum concentrations of AST and ALT, in words (MCD diet NASH mice; MCD diet mice, 75, 100 and 150 mg/kg oral (Table 4)): significantly inhibited the serum concentrations of AST and ALT with dose-dependent manners
anti-NASH/NAFLD activities, in words ([2]; MCD diet mice): significant anti-NASH/NAFLD activities
effect on MCD diet-induced steatohepatitis (H&E staining), in words ([2]; MCD diet mice, 100 mg/kg oral): prevented MCD diet-induced steatohepatitis
effect on MCD diet-induced steatohepatitis (H-E staining), in words ([2]; MCD diet mice, 75, 100 and 150 mg/kg oral (FIG. 1, Table 3)): prevented MCD diet-induced steatohepatitis
Avg ([2]; 75 mg/kg oral): 6.2
Avg ([2]; 100 mg/kg oral (Table 3 study)): 4.2
Avg ([2]; 150 mg/kg oral): 3.2
Ballooning ([2]; MCD diet mice, 75 mg/kg oral): 2
Inflammation ([2]; MCD diet mice, 75 mg/kg oral): 1
Steastosis ([2]; MCD diet mice, 75 mg/kg oral once daily, 5 times a week): 3
Fibrosis [2, 9]: 1 and 0 (4×)
Fibrosis [2, 10]: 0
Inflammation [2, 10]: 0
Ballooning [2, 11]: 2 (3×) and 1 (2×)
Steastosis ([2]; MCD diet mice, 100 mg/kg oral once daily, 5 times a week (Table 3 study), hydrochloride, 100 mg/kg): 3 (3×) and 2 (2×)
Fibrosis ([2]; MCD diet mice, 150 mg/kg oral): 0
Inflammation ([2]; MCD diet mice, 150 mg/kg oral): 0
Steastosis ([2]; MCD diet mice, 150 mg/kg oral once daily, 5 times a week, hydrochloride, 150 mg/kg): 2 (3×) and 1 and 3
Ballooning [2, 12]: 1 (4×) and 2
Sum ([2]; sum of Scores of the 5 animals, 75 mg/kg oral): 31
Sum ([2]; sum of Scores of the 5 animals, 100 mg/kg oral (Table 3 study)): 21
Sum ([2]; sum of Scores of the 5 animals, 150 mg/kg oral): 16
Scores [2, 9]: 7 and 6 (4×)
Scores [2, 11]: 5 (3×) and 3 (2×)
Scores [2, 12]: 3 (3×) and 2 and 5

COc1cc(/C=C/c2ccc(OC(=O)OCCNC(=O)C(N)Cc3ncc[nH]3)cc2)cc(OC)c1.Cl.Cl (centres unmarked) [Compound 5m, (E)-2-(2-amino-3-(1H-imidazol-2-yl)propanamido)ethyl (4-(3,5-dimethoxy styryl)phenyl) carbonate dihydrochloride]
compound remaining in pH = 1.2 solution (%) ([1]; Time 0 h): 100.0%
compound remaining in pH = 1.2 solution (%) ([1]; Time 0.167 h): 88.6%
compound remaining in pH = 1.2 solution (%) ([1]; Time 0.5 h): 109.8%
compound remaining in pH = 1.2 solution (%) ([1]; Time 1 h): 113.5%
compound remaining in pH = 1.2 solution (%) ([1]; Time 2 h): 102.6%
compound remaining in pH = 1.2 solution (%) ([1]; Time 4 h): 85.6%
effect on serum concentrations of AST and ALT, in words (MCD diet NASH mice; [3]): significantly inhibited the serum concentrations of AST and ALT
Serum ALT (U/L) (MCD diet NASH mice; [4]): 190.88 U/L
Serum AST (U/L) (MCD diet NASH mice; [4]): 381.75 U/L
effect on MCD diet-induced steatohepatitis (H&E staining), in words ([2]; MCD diet mice, 100 mg/kg oral): prevented MCD diet-induced steatohepatitis
Avg ([2]; 100 mg/kg oral, PG/TPSG (1:1)): 7.25
Steatosis ([2]; MCD diet mice, 100 mg/kg oral once daily, 5 times a week, dihydrochloride, 100 mg/kg): 2 (2×) and 3 (2×)
Ballooning [2, 4]: 2
Fibrosis [2, 4]: 0
Inflammation [2, 13]: 3 (3×) and 2
Sum [2, 7]: 29
Scores [2, 13]: 7 and 8 (2×) and 6

COc1cc(/C=C/c2ccc(OC(=O)OCCNC(=O)C(N)C(C)C)cc2)cc(OC)c1.O=C(O)c1cccnc1 (centres unmarked) [Compound 5w, (E)-2-(2-amino-3-methylbutanamido)ethyl (4-(3,5-dimethoxystyryl)phenyl) carbonate nicotinate]
compound remaining in pH = 1.2 solution (%) ([1]; Time 0 h): 100.0%
compound remaining in pH = 1.2 solution (%) ([1]; Time 0.167 h): 128.3%
compound remaining in pH = 1.2 solution (%) ([1]; Time 0.5 h): 113.4%
compound remaining in pH = 1.2 solution (%) ([1]; Time 1 h): 123.9%
compound remaining in pH = 1.2 solution (%) ([1]; Time 2 h): 128.5%
compound remaining in pH = 1.2 solution (%) ([1]; Time 4 h): 122.4%
Serum ALT (U/L) (MCD diet NASH mice; [4]): 214.50 U/L
Serum AST (U/L) (MCD diet NASH mice; [4]): 236.75 U/L
effect on MCD diet-induced steatohepatitis (H&E staining), in words ([2]; MCD diet mice, 100 mg/kg oral): prevented MCD diet-induced steatohepatitis
Avg ([2]; 100 mg/kg oral, PG/TPSG (1:1)): 7.50
Steatosis ([2]; MCD diet mice, 100 mg/kg oral once daily, 5 times a week, 100 mg/kg): 3 (3×) and 2
Ballooning [2, 4]: 2
Fibrosis [2, 4]: 0
Inflammation [2, 14]: 2 and 3 (3×)
Sum [2, 7]: 30
Scores [2, 14]: 7 (2×) and 8 (2×)

Cl.[2H]C([2H])([2H])Oc1cc(/C=C/c2ccc(OC(=O)OCCNC(=O)CN)cc2)cc(OC([2H])([2H])[2H])c1 [Compound 6a, (E)-2-(2-aminoacetamido)ethyl (4-(3,5-bis(methoxy-d3)styryl-d6)phenyl) carbonate hydrochloride]
compound remaining in pH = 1.2 solution (%) ([1]; Time 0 h): 100.0%
compound remaining in pH = 1.2 solution (%) ([1]; Time 0.167 h): 106.4%
compound remaining in pH = 1.2 solution (%) ([1]; Time 0.5 h): 101.2%
compound remaining in pH = 1.2 solution (%) ([1]; Time 1 h): 119.4%
compound remaining in pH = 1.2 solution (%) ([1]; Time 2 h): 101.5%
compound remaining in pH = 1.2 solution (%) ([1]; Time 4 h): 104.6%
Serum ALT (U/L) (MCD diet NASH mice; [4]): 402.63 U/L
Serum AST (U/L) (MCD diet NASH mice; [4]): 555.25 U/L
effect on MCD diet-induced steatohepatitis (H&E staining), in words ([2]; MCD diet mice, 100 mg/kg oral): prevented MCD diet-induced steatohepatitis
Avg ([2]; 100 mg/kg oral, PG/TPSG (1:1)): 7.00
Steatosis ([2]; MCD diet mice, 100 mg/kg oral once daily, 5 times a week, hydrochloride, 100 mg/kg): 3 (2×) and 2 (2×)
Ballooning [2, 4]: 2
Fibrosis [2, 4]: 0
Inflammation [2, 6]: 3 (2×) and 2 (2×)
Sum [2, 7]: 28
Scores [2, 6]: 8 and 7 (2×) and 6
